In the CheMixHub viscosity set:
Values joined by “and” are separate entries in the source; they are usually repeats but may differ in a detail not shown here. Equal entries are not always repeated.

Assays:
[1] = xn = mol fraction of the nth substance listed

C#CCO
viscosity [mPa·s]
Conditions	303.15 K	308.15 K	313.15 K	318.15 K	323.15 K
101 kPa	1.345	1.214	1.103	1.01	0.9277
101.32 kPa	–	1.221	1.12	1.017	0.9331

C1COCO1
viscosity
Conditions	298.15 K	303.15 K	308.15 K	313.15 K	318.15 K	323.15 K
101 kPa	0.587 mPa·s	0.62 mPa·s	0.58 mPa·s and 0.513 mPa·s and 0.5128 mPa·s	0.55 mPa·s	0.53 mPa·s and 0.458 mPa·s and 0.458 mPa·s	0.4183 mPa·s and 0.51 mPa·s
101.3 kPa	0.5919 mPa·s	–	–	0.5 mPa·s	–	–

CC(=O)c1ccccc1
viscosity
Conditions	303.15 K	308.15 K	313.15 K	323.15 K
100 kPa	1.455 mPa·s	1.415 mPa·s	1.233 mPa·s and 1.269 mPa·s	1.061 mPa·s
101 kPa	1.533 mPa·s (2×) and 1.533 mPa·s and 1.533 mPa·s	–	1.266 mPa·s and 1.266 mPa·s and 1.269 mPa·s	1.051 mPa·s
101.3 kPa	–	–	1.317 mPa·s	1.285 mPa·s

CC(C)OC(C)C
viscosity
Conditions	293.15 K	298.15 K	303.15 K	308.15 K	313.15 K	318.15 K	323.15 K
100 kPa	0.332 mPa·s	0.319 mPa·s	0.304 mPa·s	0.29 mPa·s and 0.29 mPa·s	0.274 mPa·s	0.261 mPa·s	0.246 mPa·s
101 kPa	–	0.315 mPa·s	–	–	–	–	–
101.33 kPa	0.34 mPa·s	0.322 mPa·s	0.31 mPa·s	0.293 mPa·s	0.279 mPa·s	–	–

CC(N)CN (stereo not drawn)
viscosity
Conditions	293.15 K	298.15 K	303.15 K	308.15 K	313.15 K	318.15 K	323.15 K
101 kPa	–	1.481 mPa·s	1.314 mPa·s and 1.325 mPa·s	1.175 mPa·s and 1.192 mPa·s	1.058 mPa·s and 1.084 mPa·s	0.9597 mPa·s and 0.9891 mPa·s	0.9091 mPa·s
101.33 kPa	1.61 mPa·s	1.49 mPa·s and 1.47 mPa·s	1.31 mPa·s and 1.34 mPa·s	1.19 mPa·s and 1.13 mPa·s	1.06 mPa·s and 1.06 mPa·s	0.96 mPa·s and 0.97 mPa·s	–

CCC(C)C(C)C (stereo not drawn)
Conditions	viscosity [mPa·s]
298.15 K, 101.33 kPa	0.3898

CCC(O)CC
viscosity [mPa·s]
Conditions	293.15 K	298.15 K	303.15 K	308.15 K	313.15 K	318.15 K	323.15 K
101 kPa	4.646	4.81	3.506	2.773	2.23	1.895	1.528
101.33 kPa	–	–	3.852	–	2.272	–	1.543

CCCCCCCCC
viscosity
Conditions	298.15 K	303.15 K	308.15 K	313.15 K	318.15 K	323.15 K
100 kPa	0.668 mPa·s	0.627 mPa·s	–	0.556 mPa·s	0.526 mPa·s	0.498 mPa·s
101 kPa	0.6626 mPa·s and 0.6588 mPa·s and 0.668 mPa·s	0.641 mPa·s	0.5808 mPa·s and 0.588 mPa·s and 0.5974 mPa·s	0.5652 mPa·s	0.512 mPa·s	0.5073 mPa·s
101.33 kPa	–	–	–	0.535 mPa·s	0.505 mPa·s	–

CCCCCCCCc1ccccc1
102 kPa
Conditions	viscosity [mPa·s]
293.15 K	2.57
303.15 K	2.08
313.15 K	1.73
323.15 K	1.46

CCCOCC(C)O (stereo not drawn)
viscosity [mPa·s]
Conditions	298.15 K	303.15 K	308.15 K	318.15 K
100 kPa	2.451	2.094	1.885	–
101.33 kPa	2.389	–	1.822	1.416

CCCOCCC
Conditions	viscosity [mPa·s]
298.15 K, 101.33 kPa	0.4024

CCN(CCO)CCO
101 kPa
Conditions	viscosity [mPa·s]
303.15 K	48.27
308.15 K	36.72
313.15 K	28.36
318.15 K	22.31
323.15 K	17.78

CC[NH2+]CC.O=S(=O)([O-])O
101 kPa
Conditions	viscosity [mPa·s]
303.15 K	28.9
308.15 K	24.6
313.15 K	21.9

CN(C)P(=O)(N(C)C)N(C)C
Conditions	viscosity [mPa·s]
303.15 K, 101.3 kPa	2.928

CN1CCCCCC1=O
Conditions	viscosity [mPa·s]
298.16 K, 101 kPa	4.92

COCOC
viscosity [mPa·s]
Conditions	293.15 K	298.15 K	303.1 K	303.15 K	308.15 K	313.15 K
100 kPa	0.371	0.357	–	0.346	0.337	0.329
101 kPa	–	–	0.304	–	–	–

Cc1cccc(C)n1
viscosity
Conditions	101 kPa	101.33 kPa
293.15 K	–	0.8373 mPa·s
295.15 K	0.929 mPa·s	–
298.15 K	0.8777 mPa·s	0.7813 mPa·s
298.2 K	0.806 mPa·s	–
300.12 K	–	0.847 mPa·s
303 K	0.7635 mPa·s	–
303.12 K	–	0.833 mPa·s
303.24 K	0.753 mPa·s	–
306.99 K	–	0.774 mPa·s
308.15 K	–	0.6861 mPa·s
308.26 K	0.708 mPa·s	–
313 K	0.6811 mPa·s and 0.6687 mPa·s	–
313.34 K	0.663 mPa·s	–
318.15 K	–	0.6032 mPa·s
318.39 K	0.627 mPa·s	–
323 K	0.6095 mPa·s and 0.5945 mPa·s	–

ClC(Cl)C(Cl)(Cl)Cl
101 kPa
Conditions	viscosity [mPa·s]
298.15 K	2.26
303.15 K	1.971

O=S(Cl)Cl
Conditions	viscosity [mPa·s]
298.15 K, 101 kPa	0.6194

C1COCO1 + c1ccccc1
[1], 101.3 kPa
Conditions	viscosity [mPa·s]
298.15 K, x2 = 0.0968	0.5944
298.15 K, x2 = 0.199	0.597
298.15 K, x2 = 0.3032	0.5997
298.15 K, x2 = 0.4021	0.6022
298.15 K, x2 = 0.505	0.6045
298.15 K, x2 = 0.6016	0.6064
298.15 K, x2 = 0.704	0.6079
298.15 K, x2 = 0.7993	0.6089
298.15 K, x2 = 0.8946	0.6094
313.15 K, x2 = 0.1006	0.5001
313.15 K, x2 = 0.1994	0.5003
313.15 K, x2 = 0.299	0.5005
313.15 K, x2 = 0.3987	0.5005
313.15 K, x2 = 0.5003	0.5004
313.15 K, x2 = 0.5985	0.4998
313.15 K, x2 = 0.6993	0.4988
313.15 K, x2 = 0.7998	0.4976
313.15 K, x2 = 0.8987	0.4959

CC(=O)c1ccccc1 + c1ccccc1
[1], 298.15 K, 101 kPa
Conditions	viscosity [mPa·s]
x1 = 0.5	0.942
x1 = 0.75	1.27

CCCCCCCC/C=C\CCCCCCCC(=O)OCC(COC(=O)CCCCCCC/C=C\CCCCCCCC)OC(=O)CCCCCCC/C=C\CCCCCCCC + c1ccccc1
viscosity [mPa·s], [1], 101.3 kPa
Conditions	x1 = 0.000368	x1 = 0.000535	x1 = 0.001078	x1 = 0.002049	x1 = 0.004187	x1 = 0.006457	x1 = 0.008697	x1 = 0.01009
298.15 K	0.613	0.6159	0.6281	0.6494	0.7009	0.7579	0.8092	0.8347
303.15 K	0.572	0.5754	0.5855	0.6052	0.6529	0.7052	0.7525	0.7753
308.15 K	0.5349	0.5384	0.5476	0.5658	0.6095	0.6577	0.7013	0.7219

Cc1cccc(C)n1 + c1ccccc1
viscosity [mPa·s], [1], 101 kPa
Conditions	x1 = 0.0985	x1 = 0.1989	x1 = 0.2996	x1 = 0.3945	x1 = 0.5025	x1 = 0.5994	x1 = 0.6976	x1 = 0.8006	x1 = 0.9013
303 K	0.5677	0.58	0.607	0.6191	0.6385	0.6614	0.6823	0.7108	0.7403
313 K	0.501	0.514	0.5301	0.5472	0.5654	0.5824	0.6012	0.6267	0.648
323 K	0.4471	0.4595	0.4735	0.4858	0.5011	0.5177	0.5355	0.5569	0.5778

O=S(Cl)Cl + c1ccccc1
[1], 298.15 K, 101 kPa
Conditions	viscosity [mPa·s]
x1 = 0.181	0.5962
x1 = 0.366	0.5999
x1 = 0.481	0.602
x1 = 0.686	0.6068
x1 = 0.877	0.6165
